# Measurements reported in article PMC10295947 (Biomolecules, 2023).
# Structures can show the parent of a compound that is named as a salt.
# Molecular target: MOR (Mus musculus, UniProt P42866)
# Type: biochemical
# Chain of MOR (P42866 whole entry): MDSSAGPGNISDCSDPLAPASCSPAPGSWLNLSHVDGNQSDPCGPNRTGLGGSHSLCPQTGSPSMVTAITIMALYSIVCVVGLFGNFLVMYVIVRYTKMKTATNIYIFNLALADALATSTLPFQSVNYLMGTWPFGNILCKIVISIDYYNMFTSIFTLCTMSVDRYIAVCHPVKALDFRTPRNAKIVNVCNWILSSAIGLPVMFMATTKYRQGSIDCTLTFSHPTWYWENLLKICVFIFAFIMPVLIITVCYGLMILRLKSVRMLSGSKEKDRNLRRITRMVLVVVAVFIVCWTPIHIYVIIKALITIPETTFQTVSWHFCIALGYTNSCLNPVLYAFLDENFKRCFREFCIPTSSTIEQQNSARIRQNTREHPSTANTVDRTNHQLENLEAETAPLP
compound,measurement,value
"COc1ccsc1CNCC[C@@]1(c2ccccn2)CCOC2(CCCC2)C1 [oliceridine, Oliceridine hydrochloride]",Stimulation of 35S-GTPγS binding (in words),no measurable stimulation
